# Assay results: ChEMBL document CHEMBL1138436, “Biological activity and chemistry of taxoids from the Japanese yew, Taxus cuspidata” (J Nat Prod, 2004)
# What was measured:
# Format in all cases: functional
# MKN-28 = assay: Growth inhibition of human MKN28 cells
# MCF7 = assay: Growth inhibition of human MCF7 cells
# HCC 2998 = assay: Growth inhibition of human HCC2998 cells
# KM12 = assay: Growth inhibition of human KM12 cells
# DMS-114 = assay: Growth inhibition of human DMS114 cells
# SF-268 = assay: Growth inhibition of human SF268 cells
# HCT-15 = assay: Growth inhibition of human HCT15 cells
# [1] = Growth inhibition of human MKN1 cells
# SNB-78 = assay: Growth inhibition of human SNB78 cells
# OVCAR-3 = assay: Growth inhibition of human OVCAR-3 cells
# NCI-H522 = assay: Growth inhibition of human NCI-H522 cells
# A549 = assay: Growth inhibition of human A549 cells
# DU-145 = assay: Growth inhibition of human DU145 cells
# OVCAR-4 = assay: Growth inhibition of human OVCAR4 cells
# MKN-7 = assay: Growth inhibition of human MKN7 cells
# OVCAR-8 = assay: Growth inhibition of human OVCAR8 cells
# NCI-H23 = assay: Growth inhibition of human NCI-H23 cells
# OVCAR-5 = assay: Growth inhibition of human OVCAR5 cells
# HT-29 = assay: Growth inhibition of human HT-29 cells
# SK-OV-3 = assay: Growth inhibition of human SKOV3 cells
# ACHN = assay: Growth inhibition of human ACHN cells
# [2] = Growth inhibition of human RXF631L cells
# NCI-H226 = assay: Growth inhibition of human NCI-H226 cells
# SF-539 = assay: Growth inhibition of human SF539 cells
# MKN-45 = assay: Growth inhibition of human MKN45 cells
# LOX IMVI = assay: Growth inhibition of human LOXIMVI cells
# MDA-MB-231 = assay: Growth inhibition of human MDA-MB-231 cells
# SF-295 = assay: Growth inhibition of human SF295 cells
# [3] = read-out: LC50 (the source's name)
# [4] = read-out: pLC50 (the source's name) (converted)
structure (smiles),measurement,setting,value
C=C1[C@@H](OC(=O)/C=C/c2ccccc2)C[C@H](OC(C)=O)[C@]2(C)[C@@H]1C[C@]1(C(C)(C)O)C[C@H](OC(C)=O)C(C)=C1[C@@H](OC(=O)c1ccccc1)[C@@H]2OC(C)=O [TAXUSPINE A],GI50,MKN-28; read-out: GI50,12 µM
same,CC50,MKN-28; [3],> 100 µM
same,TGI,MKN-28; read-out: TGI,> 100 µM
same,GI50,MKN-28; read-out: pGI50 (converted),11.7 µM
same,CC50,MKN-28; [4],100 µM
same,TGI,MKN-28; read-out: pTGI (converted),100 µM
same,GI50,MCF7; read-out: GI50,9.3 µM
same,CC50,MCF7; [3],> 100 µM
same,TGI,MCF7; read-out: TGI,> 100 µM
same,GI50,MCF7; read-out: pGI50 (converted),9.33 µM
same,CC50,MCF7; [4],100 µM
same,TGI,MCF7; read-out: pTGI (converted),100 µM
same,TGI,HCC 2998,> 100 µM
same,GI50,HCC 2998; read-out: GI50,26 µM
same,CC50,HCC 2998; [3],> 100 µM
same,GI50,HCC 2998; read-out: pGI50 (converted),26.3 µM
same,GI50,KM12; read-out: GI50,6.4 µM
same,CC50,KM12; [3],> 100 µM
same,TGI,KM12; read-out: TGI,> 100 µM
same,GI50,KM12; read-out: pGI50 (converted),6.46 µM
same,CC50,KM12; [4],100 µM
same,TGI,KM12; read-out: pTGI (converted),100 µM
same,GI50,DMS-114; read-out: GI50,7.8 µM
same,CC50,DMS-114; [3],> 100 µM
same,TGI,DMS-114; read-out: TGI,> 100 µM
same,GI50,DMS-114; read-out: pGI50 (converted),7.76 µM
same,TGI,SF-268,> 100 µM
same,GI50,SF-268; read-out: GI50,43 µM
same,CC50,SF-268; [3],> 100 µM
same,GI50,SF-268; read-out: pGI50 (converted),42.7 µM
same,CC50,SF-268; [4],100 µM
same,GI50,HCT-15; read-out: GI50,29 µM
same,CC50,HCT-15; [3],> 100 µM
same,TGI,HCT-15; read-out: TGI,> 100 µM
same,GI50,HCT-15; read-out: pGI50 (converted),28.8 µM
same,CC50,HCT-15; [4],100 µM
same,TGI,HCT-15; read-out: pTGI (converted),100 µM
same,GI50,"[1]; MKN-1, read-out: GI50",93 µM
same,CC50,"[1]; MKN-1, read-out: LC50 (the source's name)",> 100 µM
same,TGI,"[1]; MKN-1, read-out: TGI",> 100 µM
same,GI50,"[1]; MKN-1, read-out: pGI50 (converted)",93.3 µM
same,CC50,"[1]; MKN-1, read-out: pLC50 (the source's name) (converted)",100 µM
same,TGI,"[1]; MKN-1, read-out: pTGI (converted)",100 µM
same,GI50,SNB-78; read-out: GI50,3.2 µM
same,CC50,SNB-78; [3],> 100 µM
same,TGI,SNB-78; read-out: TGI,> 100 µM
same,GI50,SNB-78; read-out: pGI50 (converted),3.16 µM
same,CC50,SNB-78; [4],100 µM
same,TGI,SNB-78; read-out: pTGI (converted),100 µM
same,GI50,OVCAR-3; read-out: GI50,5 µM
same,CC50,OVCAR-3; [3],> 100 µM
same,TGI,OVCAR-3; read-out: TGI,> 100 µM
same,GI50,OVCAR-3; read-out: pGI50 (converted),5.01 µM
same,CC50,OVCAR-3; [4],100 µM
same,TGI,OVCAR-3; read-out: pTGI (converted),100 µM
same,GI50,NCI-H522; read-out: GI50,3.1 µM
same,CC50,NCI-H522; [3],> 100 µM
same,TGI,NCI-H522; read-out: TGI,81 µM
same,GI50,NCI-H522; read-out: pGI50 (converted),3.09 µM
same,TGI,NCI-H522; read-out: pTGI (converted),81.3 µM
same,GI50,A549; read-out: GI50,9.6 µM
same,CC50,A549; [3],> 100 µM
same,TGI,A549; read-out: TGI,> 100 µM
same,GI50,A549; read-out: pGI50 (converted),9.55 µM
same,CC50,A549; [4],100 µM
same,TGI,A549; read-out: pTGI (converted),100 µM
same,TGI,DU-145,> 100 µM
same,GI50,DU-145; read-out: GI50,100 µM
same,CC50,DU-145; [3],> 100 µM
same,GI50,DU-145; read-out: pGI50 (converted),100 µM
same,CC50,DU-145; [4],100 µM
same,GI50,OVCAR-4; read-out: GI50,22 µM
same,CC50,OVCAR-4; [3],> 100 µM
same,TGI,OVCAR-4; read-out: TGI,> 100 µM
same,GI50,OVCAR-4; read-out: pGI50 (converted),22.4 µM
same,CC50,OVCAR-4; [4],100 µM
same,TGI,OVCAR-4; read-out: pTGI (converted),100 µM
same,TGI,MKN-7,> 100 µM
same,GI50,MKN-7; read-out: GI50,5.1 µM
same,CC50,MKN-7; [3],> 100 µM
same,GI50,MKN-7; read-out: pGI50 (converted),5.13 µM
same,GI50,OVCAR-8; read-out: GI50,100 µM
same,CC50,OVCAR-8; [3],> 100 µM
same,TGI,OVCAR-8; read-out: TGI,> 100 µM
same,GI50,OVCAR-8; read-out: pGI50 (converted),100 µM
same,CC50,OVCAR-8; [4],100 µM
same,TGI,OVCAR-8; read-out: pTGI (converted),100 µM
same,GI50,NCI-H23; read-out: GI50,100 µM
same,CC50,NCI-H23; [3],> 100 µM
same,TGI,NCI-H23; read-out: TGI,> 100 µM
same,GI50,NCI-H23; read-out: pGI50 (converted),100 µM
same,CC50,NCI-H23; [4],100 µM
same,GI50,OVCAR-5; read-out: GI50,32 µM
same,CC50,OVCAR-5; [3],> 100 µM
same,TGI,OVCAR-5; read-out: TGI,> 100 µM
same,GI50,OVCAR-5; read-out: pGI50 (converted),32.4 µM
same,CC50,OVCAR-5; [4],100 µM
same,TGI,OVCAR-5; read-out: pTGI (converted),100 µM
same,GI50,HT-29; read-out: GI50,43 µM
same,CC50,HT-29; [3],> 100 µM
same,TGI,HT-29; read-out: TGI,> 100 µM
same,GI50,HT-29; read-out: pGI50 (converted),43.7 µM
same,TGI,HT-29; read-out: pTGI (converted),100 µM
same,GI50,SK-OV-3; read-out: GI50,100 µM
same,CC50,SK-OV-3; [3],> 100 µM
same,TGI,SK-OV-3; read-out: TGI,> 100 µM
same,GI50,SK-OV-3; read-out: pGI50 (converted),100 µM
same,CC50,SK-OV-3; [4],100 µM
same,TGI,SK-OV-3; read-out: pTGI (converted),100 µM
same,GI50,ACHN; read-out: GI50,87 µM
same,CC50,ACHN; [3],> 100 µM
same,TGI,ACHN; read-out: TGI,> 100 µM
same,GI50,ACHN; read-out: pGI50 (converted),87.1 µM
same,TGI,ACHN; read-out: pTGI (converted),100 µM
same,TGI,[2]; RXF 631,> 100 µM
same,GI50,"[2]; RXF 631, read-out: GI50",100 µM
same,CC50,"[2]; RXF 631, read-out: LC50 (the source's name)",> 100 µM
same,GI50,"[2]; RXF 631, read-out: pGI50 (converted)",100 µM
same,CC50,"[2]; RXF 631, read-out: pLC50 (the source's name) (converted)",100 µM
same,GI50,NCI-H226; read-out: GI50,21 µM
same,CC50,NCI-H226; [3],> 100 µM
same,TGI,NCI-H226; read-out: TGI,> 100 µM
same,GI50,NCI-H226; read-out: pGI50 (converted),83.2 µM
same,CC50,NCI-H226; [4],100 µM
same,TGI,NCI-H226; read-out: pTGI (converted),100 µM
same,GI50,SF-539; read-out: GI50,100 µM
same,CC50,SF-539; [3],> 100 µM
same,TGI,SF-539; read-out: TGI,> 100 µM
same,GI50,SF-539; read-out: pGI50 (converted),100 µM
same,CC50,SF-539; [4],100 µM
same,TGI,SF-539; read-out: pTGI (converted),100 µM
same,GI50,MKN-45; read-out: GI50,> 100 µM
same,CC50,MKN-45; [3],> 100 µM
same,TGI,MKN-45; read-out: TGI,> 100 µM
same,GI50,MKN-45; read-out: pGI50 (converted),100 µM
same,CC50,MKN-45; [4],100 µM
same,TGI,MKN-45; read-out: pTGI (converted),100 µM
same,GI50,LOX IMVI; read-out: GI50,38 µM
same,CC50,LOX IMVI; [3],> 100 µM
same,TGI,LOX IMVI; read-out: TGI,> 100 µM
same,GI50,LOX IMVI; read-out: pGI50 (converted),38 µM
same,TGI,LOX IMVI; read-out: pTGI (converted),100 µM
same,GI50,MDA-MB-231; read-out: GI50,16 µM
same,CC50,MDA-MB-231; [3],> 100 µM
same,TGI,MDA-MB-231; read-out: TGI,> 100 µM
same,GI50,MDA-MB-231; read-out: pGI50 (converted),16.2 µM
same,CC50,MDA-MB-231; [4],100 µM
same,TGI,MDA-MB-231; read-out: pTGI (converted),100 µM
same,GI50,SF-295; read-out: GI50,10 µM
same,CC50,SF-295; [3],> 100 µM
same,TGI,SF-295; read-out: TGI,> 100 µM
same,GI50,SF-295; read-out: pGI50 (converted),11 µM
same,TGI,SF-295; read-out: pTGI (converted),100 µM
